Earlier results in US6696082B2, “Enhanced liposomal thioretinaco ozonide compositions and liposomal carrier” (priority 2002, dated 2004).

Assays:
[1] = rats treated with parenteral homocysteine thiolactone; cited from earlier work
[2] = system: cultured malignant and normal cells; details: except at high concentrations; cited from earlier work
[3] = system: human pancreatic adenocarcinomas; details: intra-tumor administration, athymic mice; cited from earlier work
malignant tumors = details: in vivo; cited from earlier work

Molecule | antiatherogenic activity [1] | growth of cultured cells [2] | growth of human pancreatic adenocarcinomas [3] | growth of malignant tumors in animals (malignant tumors)
CC1=C(/C=C/C(C)=C/C=C/C(C)=C/C(=O)NC2CCSC2=O)C(C)(C)CCC1 (centres unmarked) [thioretinamide, N-homocysteine thiolactonyl retinamide] | have antiatherogenic activity | decrease growth without degeneration or detachment of the cells | – | –
N-homocysteine thiolactonyl retinamido cobalamin [(NHTR)2Cbl] | have antiatherogenic activity | decrease growth without degeneration or detachment of the cells | decreased the growth | –
NC(=O)/C=C\C(=O)NC1CCSC1=O (centres unmarked) [N-maleamide homocysteine thiolactone amide] | – | – | – | suppress the growth of malignant tumors in animals
rhodium trichloride oxalyl homocysteine thiolactone amide | – | – | – | suppress the growth of malignant tumors in animals
N-maleyl homocysteine thiolactone amide | – | – | – | suppress the growth of malignant tumors in animals
